This note sets out measurements from US10696672B2 (Pliant Therapeutics, Inc., priority 2016, dated 2020).

SMILES strings stand for the structures.

Chain of recombinant human integrin αvβ6 (P06756 31-992): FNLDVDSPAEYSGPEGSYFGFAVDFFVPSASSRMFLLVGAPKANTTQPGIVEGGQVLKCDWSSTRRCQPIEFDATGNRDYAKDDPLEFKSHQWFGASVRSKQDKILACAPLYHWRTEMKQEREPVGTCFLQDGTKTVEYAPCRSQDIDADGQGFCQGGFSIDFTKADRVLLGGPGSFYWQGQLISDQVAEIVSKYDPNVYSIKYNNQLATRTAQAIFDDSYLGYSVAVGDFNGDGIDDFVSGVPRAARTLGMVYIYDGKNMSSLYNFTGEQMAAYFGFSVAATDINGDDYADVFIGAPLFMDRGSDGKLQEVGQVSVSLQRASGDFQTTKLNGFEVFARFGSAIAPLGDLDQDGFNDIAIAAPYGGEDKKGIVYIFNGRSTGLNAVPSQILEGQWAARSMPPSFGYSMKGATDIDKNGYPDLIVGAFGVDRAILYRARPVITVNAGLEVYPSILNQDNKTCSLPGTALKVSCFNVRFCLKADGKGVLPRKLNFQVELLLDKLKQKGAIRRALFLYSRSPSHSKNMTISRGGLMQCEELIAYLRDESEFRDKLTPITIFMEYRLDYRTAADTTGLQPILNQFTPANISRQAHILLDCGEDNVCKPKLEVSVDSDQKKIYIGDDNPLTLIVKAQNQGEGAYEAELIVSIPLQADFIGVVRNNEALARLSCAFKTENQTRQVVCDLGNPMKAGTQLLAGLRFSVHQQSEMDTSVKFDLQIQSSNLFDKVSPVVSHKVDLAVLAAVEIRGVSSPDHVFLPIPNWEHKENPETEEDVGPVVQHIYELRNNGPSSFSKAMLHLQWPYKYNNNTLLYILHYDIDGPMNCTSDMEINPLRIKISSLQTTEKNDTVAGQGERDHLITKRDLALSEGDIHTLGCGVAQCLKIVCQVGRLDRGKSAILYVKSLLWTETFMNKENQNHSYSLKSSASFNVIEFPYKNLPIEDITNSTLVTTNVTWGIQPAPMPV
Chain of recombinant human integrin αvβ6 (P18564 22-707): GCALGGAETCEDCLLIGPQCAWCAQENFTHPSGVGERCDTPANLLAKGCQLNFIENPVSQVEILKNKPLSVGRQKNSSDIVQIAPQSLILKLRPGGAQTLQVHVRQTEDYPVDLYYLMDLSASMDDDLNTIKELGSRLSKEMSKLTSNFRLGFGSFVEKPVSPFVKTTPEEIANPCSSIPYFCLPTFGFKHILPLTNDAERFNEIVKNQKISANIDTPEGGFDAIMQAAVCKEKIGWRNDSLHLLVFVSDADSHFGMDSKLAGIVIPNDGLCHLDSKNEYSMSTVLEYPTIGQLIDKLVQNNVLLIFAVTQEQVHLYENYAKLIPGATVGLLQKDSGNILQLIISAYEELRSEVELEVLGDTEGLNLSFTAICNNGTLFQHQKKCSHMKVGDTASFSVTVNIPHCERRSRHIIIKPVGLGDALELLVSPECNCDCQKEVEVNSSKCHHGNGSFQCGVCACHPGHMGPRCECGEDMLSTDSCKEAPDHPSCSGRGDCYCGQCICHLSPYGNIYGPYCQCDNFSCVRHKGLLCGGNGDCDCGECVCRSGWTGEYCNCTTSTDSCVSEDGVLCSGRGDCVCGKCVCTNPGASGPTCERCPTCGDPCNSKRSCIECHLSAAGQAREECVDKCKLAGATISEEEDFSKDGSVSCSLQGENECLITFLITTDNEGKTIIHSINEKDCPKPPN

In this experiment the target is recombinant human integrin αvβ6 (Homo sapiens (Human), UniProt P06756+P18564). The experiment in a line: Solid phase integrin αvβ6 binding assay. The note with it: plate-coated integrin; recombinant TGFβ1 LAP 0.67 ug/ml as ligand; 2 hours at 25° C.; read-out: αvβ6 Inhibition IC50 (nM) - range. On the procedure:
Example B1—Solid Phase Integrin αvβ6 Binding Assay
Microplates were coated with recombinant human integrin αvβ6 (2 ug/ml) in PBS (100 ul/well 25° C., overnight). The coating solution was removed, washed with wash buffer (0.05% Tween 20; 0.5 mM MnCl2; in 1×TBS). Plate was blocked with 200 ul/well of Block Buffer (1% BSA; 5% sucrose; 0.5 mM MnCl2; in 1×TBS) at 37° C. for 2 h. Dilutions of testing compounds and recombinant TGFβ1 LAP (0.67 ug/ml) in binding buffer (0.05% BSA; 2.5% sucrose; 0.5 mM MnCl2; in 1×TBS) were added. The plate was incubated for 2 hours at 25° C., washed, and incubated for 1 hour with Biotin-Anti-hLAP. Bound antibody was detected by peroxidase-conjugated streptavidin. The IC50 values for testing compounds were calculated by a four-parameter logistic regression.
The compounds tested were compound samples prepared according to procedures described in the Synthetic Examples section, with the stereochemical purity as indicated in the Examples indicated.
What is called IC50 is the concentration that inhibits the measured activity by half. On to `O=C(N[C@@H](CCN1CC[C@@H](CCc2ccc3c(n2)NCCC3)C1)C(=O)O)c1ccc2cnn(C(F)F)c2c1` [Compound 29a, (S)-2-(1-(difluoromethyl)-1H-indazole-6-carboxamido)-4-((R)-3-(2-(5,6,7,8-tetrahydro-1,8-naphthyridin-2-yl)ethyl)pyrrolidin-1-yl)butanoic acid], for which the IC50 was below 50 nM.

For the compound `CC(C)(C)C(=O)N1CCC[C@@H](C(=O)N[C@@H](CCN2CC[C@@H](CCc3ccc4c(n3)NCCC4)C2)C(=O)O)C1` [Compound 79], the IC50 is below 50 nM. The result for `O=C(N[C@@H](CCN1CC[C@@H](CCc2ccc3c(n2)NCCC3)C1)C(=O)O)c1ccccc1C(F)(F)F` [Compound 8a, (S)-4-((R)-3-(2-(5,6,7,8-tetrahydro-1,8-naphthyridin-2-yl)ethyl)pyrrolidin-1-yl)-2-(2-(trifluoromethyl)benzamido)butanoic acid] reads below 50 nM; that for `Cn1nc(-c2ccccc2)c2cccc(C(=O)N[C@@H](CCN3CC[C@@H](CCc4ccc5c(n4)NCCC5)C3)C(=O)O)c21` [Compound 82], below 50 nM; that for `O=C(N[C@@H](CCN1CC[C@@H](CCc2ccc3c(n2)NCCC3)C1)C(=O)O)c1ccccn1` [Compound 17a, (S)-2-(picolinamido)-4-((R)-3-(2-(5,6,7,8-tetrahydro-1,8-naphthyridin-2-yl)ethyl)pyrrolidin-1-yl)butanoic acid], 50 to 250 nM. Take `O=C(N[C@@H](CCN1C2CCC1C(CCc1ccc3c(n1)NCCC3)C2)C(=O)O)c1cc(F)cc(C(F)(F)F)c1` (stereo partly drawn) [Compound 141]: the IC50 is below 50 nM. The result for `CC(C)(Cc1ccccc1)C(=O)N[C@@H](CCN1CC[C@@H](CCc2ccc3c(n2)NCCC3)C1)C(=O)O` [Compound 45] reads below 50 nM.

With `CC(C)(C)c1cccc(C(=O)N[C@@H](CCN2CC[C@@H](CCc3ccc4c(n3)NCCC4)C2)C(=O)O)c1` [Compound 68], the IC50 is below 50 nM. The figure for `CC(C)(C(=O)N[C@@H](CCN1CC(CCc2ccc3c(n2)NCCC3)C1)C(=O)O)c1ccccc1` [Compound 136] is above 1000 nM; for `O=C(N[C@@H](CCN1CC[C@@H](CCc2ccc3c(n2)NCCC3)C1)C(=O)O)C1CCC(F)(F)CC1` [Compound 21a, (S)-2-(4,4-difluorocyclohexane-1-carboxamido)-4-((R)-3-(2-(5,6,7,8-tetrahydro-1,8-naphthyridin-2-yl)ethyl)pyrrolidin-1-yl)butanoic acid] it is below 50 nM; for `Cn1ncc2cccc(C(=O)N[C@@H](CCN3CC[C@@H](CCc4ccc5c(n4)NCCC5)C3)C(=O)O)c21` [Compound 28a, (S)-2-(1-methyl-1H-indazole-7-carboxamido)-4-((R)-3-(2-(5,6,7,8-tetrahydro-1,8-naphthyridin-2-yl)ethyl)pyrrolidin-1-yl)butanoic acid] it is below 50 nM. The figure for `CC(C)(Cc1ccccc1)C(=O)N[C@@H](CCN1CC(OCCc2ccc3c(n2)NCCC3)C1)C(=O)O` [Compound 130] is 250 to 1000 nM; for `O=C(N[C@@H](CCN1CC[C@@H](CCc2ccc3c(n2)NCCC3)C1)C(=O)O)[C@@H]1CCN(c2ccccn2)C1` [Compound 47] it is below 50 nM; for `O=C(O)[C@H](CCN1CC[C@@H](OCCc2ccc3c(n2)NCCC3)C1)NC(=O)[C@@H]1CCCN1Cc1ccccc1` [Compound 121] it is 250 to 1000 nM. With `O=C(N[C@@H](CCN1CCC[C@@](F)(CCc2ccc3c(n2)NCCC3)C1)C(=O)O)c1cccc(N2CCOCC2)c1` [Compound 96], the half-inhibitory concentration (IC50) was in the range of 50 to 250 nM. Turning to `Cc1cc(C)n(-c2cccc(C(=O)N[C@@H](CCN3CC[C@@H](OCc4ccc5c(n4)NCCC5)C3)C(=O)O)c2)n1` [Compound 113], the IC50 is above 1000 nM.

On to `O=C(N[C@@H](CCN1CC(CCc2ccc3c(n2)NCCC3)C1)C(=O)O)c1c(Cl)cccc1Cl` [Compound 139], for which the IC50 fell in the range of 250 to 1000 nM.

As to `CC(C)(O)CC1NCCC1C(=O)N[C@@H](CCN1CC(OCCc2ccc3c(n2)NCCC3)C1)C(=O)O` (stereo partly drawn) [Compound 134], the concentration for half-maximal inhibition (IC50) is 250 to 1000 nM. Turning to `CC(C)(C)OC(=O)N[C@@H](CCN1CC[C@@H](OCc2ccc3c(n2)NCCC3)C1)C(=O)O` [Compound 111], the IC50 is above 1000 nM. The figure for `Cn1ncc2ccc(C(=O)N[C@@H](CCN3CCC[C@@](F)(CCc4ccc5c(n4)NCCC5)C3)C(=O)O)cc21` [Compound 106] is 50 to 250 nM. The figure for `O=C(O)[C@H](CCN1CC(CCc2ccc3c(n2)NCCC3)C1)NC(=O)[C@@H]1CCCN1c1ccccc1` [Compound 129] is 250 to 1000 nM; for `O=C(N[C@@H](CCN1CC[C@](F)(CCc2ccc3c(n2)NCCC3)C1)C(=O)O)c1c(Cl)cccc1Cl` [Compound 64] it is 50 to 250 nM; for `O=C(N[C@@H](CCN1CC[C@@H](CCc2ccc3c(n2)NCCC3)C1)C(=O)O)c1cccc(C(F)(F)F)c1` [Compound 9a, (S)-4-((R)-3-(2-(5,6,7,8-tetrahydro-1,8-naphthyridin-2-yl)ethyl)pyrrolidin-1-yl)-2-(3-(trifluoromethyl)benzamido)butanoic acid] it is below 50 nM. The result for `O=C(N[C@@H](CCN1CC[C@@H](CCc2ccc3c(n2)NCCC3)C1)C(=O)O)c1cccc(-c2cccs2)c1` [Compound 55] reads below 50 nM; that for `N#Cc1cccc(C(=O)N[C@@H](CCN2CC[C@@H](CCc3ccc4c(n3)NCCC4)C2)C(=O)O)c1` [Compound 48], below 50 nM.

Regarding `O=C(N[C@H](CCN1CC[C@@H](CCc2ccc3c(n2)NCCC3)C1)C(=O)O)C1CCC(F)(F)CC1` [Compound 21c, (R)-2-(4,4-difluorocyclohexane-1-carboxamido)-4-((R)-3-(2-(5,6,7,8-tetrahydro-1,8-naphthyridin-2-yl)ethyl)pyrrolidin-1-yl)butanoic acid], the IC50 was below 50 nM. Regarding `O=C(N[C@@H](CCN1CCC[C@@](F)(CCc2ccc3c(n2)NCCC3)C1)C(=O)O)C1CCC(F)(F)CC1` [Compound 107], the IC50 lay within 50 to 250 nM. Turning to `CC(C)(C)OC(=O)N[C@@H](CCN1CC[C@@H](CCc2ccc3c(n2)NCCC3)C1)C(=O)O` [Compound 2a, (S)-2-((tert-butoxycarbonyl)amino)-4-((R)-3-(2-(5,6,7,8-tetrahydro-1,8-naphthyridin-2-yl)ethyl)pyrrolidin-1-yl)butanoic acid], the IC50 was below 50 nM.

For the compound `O=C(N[C@@H](CCN1CC[C@@H](CCc2ccc3c(n2)NCCC3)C1)C(=O)O)C1CCOCC1` [Compound 38], the IC50 was below 50 nM.

For `Cn1ncc2ccc(C(=O)N[C@@H](CCN3CCC[C@](F)(CCc4ccc5c(n4)NCCC5)C3)C(=O)O)cc21` [Compound 110], the IC50 was below 50 nM. On to `CC(C)(C(=O)N[C@@H](CCN1CC[C@@H](OCCc2ccc3c(n2)NCCC3)C1)C(=O)O)c1cccnc1` [Compound 122], for which the IC50 is 250 to 1000 nM. For the compound `O=C(N[C@@H](CCN1CCCC(CCc2ccc3c(n2)NCCC3)C1)C(=O)O)c1ccccc1` (stereo partly drawn) [Compound 54], the 50% inhibitory concentration (IC50) was below 50 nM. For the compound `CC(C)(C(=O)N[C@@H](CCN1CC(CCc2ccc3c(n2)NCCC3)C1)C(=O)O)c1cccnc1` [Compound 144], the IC50 was above 1000 nM.

For `O=C(N[C@@H](CCN1CC(CCc2ccc3c(n2)NCCC3)CC(F)(F)C1)C(=O)O)c1ccccc1` (stereo partly drawn) [Compound 41], the half-inhibitory concentration (IC50) was 50 to 250 nM. Turning to `O=C(O)[C@H](CCN1CC[C@@H](CCc2ccc3c(n2)NCCC3)C1)NC(=O)[C@@H]1CCCN1Cc1ccccc1` [Compound 36], the IC50 is below 50 nM.

Take `CC(C)(C(=O)N[C@@H](CCN1CC[C@@H](CCc2ccc3c(n2)NCCC3)C1)C(=O)O)c1ccccc1` [Compound 44]: the IC50 was below 50 nM.

For `CC(C)(C(=O)N[C@@H](CCN1CC(OCCc2ccc3c(n2)NCCC3)C1)C(=O)O)c1cccnc1` [Compound 128], the IC50 is 250 to 1000 nM. `O=C(N[C@@H](CCN1CCC[C@@](F)(CCc2ccc3c(n2)NCCC3)C1)C(=O)O)c1c(Cl)cccc1Cl` [Compound 101]: the IC50 was 250 to 1000 nM.

With `O=C(N[C@@H](CCN1CC[C@@H](CCc2ccc3c(n2)NCCC3)C1)C(=O)O)c1cccc(-c2ccccc2)c1` [Compound 56], the 50% inhibitory concentration (IC50) was below 50 nM. For the compound `CC(C)Cn1ncc2c(C(=O)N[C@@H](CCN3CC[C@@H](CCc4ccc5c(n4)NCCC5)C3)C(=O)O)cccc21` [Compound 61], the concentration for half-maximal inhibition (IC50) was below 50 nM.

As to `O=C(N[C@@H](CCN1CCC[C@@](F)(CCc2ccc3c(n2)NCCC3)C1)C(=O)O)c1cccc(F)c1Cl` [Compound 62], the IC50 is 50 to 250 nM. Consider `Cc1cccc(C)c1C(=O)NC(CCN1CC[C@@H](CCc2ccc3c(n2)NCCC3)C1)C(=O)O` (stereo partly drawn) [4a and 4c], for which the half-inhibitory concentration (IC50) is below 50 nM.

With `O=C(N[C@@H](CCN1CCC[C@@](F)(CCc2ccc3c(n2)NCCC3)C1)C(=O)O)c1ccccc1` [Compound 52], the IC50 was 50 to 250 nM. In the case of `O=C(N[C@@H](CCN1CCC[C@](F)(CCc2ccc3c(n2)NCCC3)C1)C(=O)O)c1cc(F)cc(F)c1` [Compound 104], the IC50 was below 50 nM. On to `Cn1nccc1C(=O)N[C@@H](CCN1CC[C@@H](CCc2ccc3c(n2)NCCC3)C1)C(=O)O` [Compound 49], for which the half-inhibitory concentration (IC50) was below 50 nM. As to `CC(C)(Cc1ccccc1)C(=O)N[C@@H](CCN1CC(CCc2ccc3c(n2)NCCC3)C1)C(=O)O` [Compound 137], the IC50 was above 1000 nM. The figure for `O=C(NC(CCN1CC[C@@H](CCc2ccc3c(n2)NCCC3)C1)C(=O)O)c1ccccc1` (stereo partly drawn) [3a and 3c] is below 50 nM. For `CCCCC(=O)N1CCC[C@@H](C(=O)N[C@@H](CCN2CC[C@@H](CCc3ccc4c(n3)NCCC4)C2)C(=O)O)C1` [Compound 78], the IC50 is below 50 nM.
